According to ChEMBL document CHEMBL1155626, “Metabolites of Colletotrichum gloeosporioides, an endophytic fungus in Artemisia mongolica” (2000):
≈ marks a conversion by molar mass, not a printed value.

Assays:
Type in all cases: functional
[1] = system: Micrococcus luteus; experiment: Antimicrobial activity against Sarcina lutea after 48 hrs by paper disk assay
[2] = system: Bacillus subtilis; experiment: Antimicrobial activity against Bacillus subtilis after 48 hrs by paper disk assay
[3] = system: Staphylococcus aureus; experiment: Antimicrobial activity against Staphylococcus aureus after 48 hrs by paper disk assay
[4] = system: Helminthosporium; experiment: Antimicrobial activity against Helminthosporium sativum after 96 hrs by paper disk assay

SMILES	MIC [1]	MIC [2]	MIC [3]	MIC [4]
CC1(C)S[C@@H]2[C@H](NC(=O)[C@H](N)c3ccccc3)C(=O)N2[C@H]1C(=O)O [AMPICILLIN]	0.01 µg/mL (≈ 0.0286 µM)	0.05 µg/mL (≈ 0.143 µM)	–	–
COc1c(C)c(OC(=O)c2c(C)cc(O)cc2O)c(C)c(C(=O)Oc2cc(O)c(C(=O)O)c(C)c2C)c1C [COLLETOTRIC ACID]	50 µg/mL (≈ 95.3 µM)	25 µg/mL (≈ 47.7 µM)	50 µg/mL (≈ 95.3 µM)	50 µg/mL (≈ 95.3 µM)
CC(C)(C)C(=O)C(Oc1ccc(Cl)cc1)n1cncn1 (configuration not stated) [TRIADIMEFON]	–	–	–	20 µg/mL (≈ 68.1 µM)
